From patent publication US10718006B2, “Methods for detecting beta-lactamase-producing bacteria” (priority 2015, dated 2020)

What was measured:
Assay type in all cases: cell-based
[1] = system: P. aeruginosa strains; assay: Electrochemical assay with substrate HMRZ-86, liquid cultures; conditions: liquid culture, 30 min with HMRZ-86
Protocol: Each cryopreserved strain is cultured in 10 mL of LB medium at 37° C. until the stationary phase is obtained.
A volume of 50 μL of culture liquid is incubated in the presence of 50 μL of a solution of HMRZ-86 at 0.5 mM in PBS at 37° C. with stirring for 30 min. 40 μL of the reaction mixture is taken and transferred onto the surface of a screen-printed carbon sensor (Dropsens, DRP-110) connected beforehand to a STAT 8000P portable potentiostat (Dropsens) with power supply from the computer's USB port and controlled by the DropView 8400 software. Linear voltammetry measurements are carried out by linear potential scanning from −0.1 V to 1.2 V at a rate of 50 mV·s^−1. The peak current appearing in the potential range +0.2 to +0.55 V vs. Ag/AgCl, associated with hydrolysis of the beta-lactam ring of HMRZ-86, is selected as the analytical response. If the intensity of the peak (i) has a value above 500 nA, the sample contains a strain capable of degrading the C3Gs.
(§1) The electrochemical method of the invention was applied to analysis of a panel of 40 strains producing various β-lactamases and was compared with the R-Lacta™ Test (Biorad), the principle of which is based on qualitative colorimetric detection of the C3G-resistant strains. The results presented in Table 7 were obtained after 30 min of incubation of the bacteria with the substrate HMRZ-86 for both methods. Based on the interpretation of the results proposed by the supplier, the R-Lacta™ Test allows identification of the C3G-resistant strains with a level of agreement of 68%, whereas a level of agreement of 95% was obtained with the electrochemical method of the invention. In contrast to colorimetry, amperometry offers the advantage of measuring a numerical value of current which, on the one hand, avoids any subjective interpretation of the result (intermediate colour), and on the other hand allows traceability of the result.
(§2) Table 7: Comparison of the results obtained with the electrochemical method of the invention for liquid cultures with those obtained with the R-Lacta™ Test implemented according to the supplier's recommendations with isolated colonies. In both cases, the readings were taken after incubation with the substrate HMRZ-86 for 30 min.

[2] = system: C. freundii strain; assay: β-Lacta Test (colorimetric, HMRZ-86), isolated colonies; set-up: key: Yellow or orange colour: negative result (absence of C3G-resistant strains); Orange: Yellow or orange colour: negative result (absence of C3G-resistant strains); Red colour: positive result (presence of C3G-resistant strains); conditions: C. freundii 11745, Inducible cephalosporinase, 30 min with HMRZ-86
Protocol: as §1, §2

[3] = system: E. aerogenes strains; assay: as above; set-up: key: Yellow or orange colour: negative result (absence of C3G-resistant strains); Orange: Yellow or orange colour: negative result (absence of C3G-resistant strains); Red colour: positive result (presence of C3G-resistant strains)
Protocol: as §1, §2

[4] = system: E. cloacae strains; assay: as above; set-up: key: Yellow or orange colour: negative result (absence of C3G-resistant strains); Orange: Yellow or orange colour: negative result (absence of C3G-resistant strains); Red colour: positive result (presence of C3G-resistant strains); conditions: 30 min with HMRZ-86
Protocol: as §1, §2

[5] = system: E. coli strains producing various β-lactamases; assay: as above; set-up: key: Yellow or orange colour: negative result (absence of C3G-resistant strains); Orange: Yellow or orange colour: negative result (absence of C3G-resistant strains); Red colour: positive result (presence of C3G-resistant strains)
Protocol: as §1, §2

[6] = system: K. oxytoca strain; assay: as above; set-up: key: Yellow or orange colour: negative result (absence of C3G-resistant strains); Orange: Yellow or orange colour: negative result (absence of C3G-resistant strains); Red colour: positive result (presence of C3G-resistant strains); conditions: K. oxytoca 11779, Low-level penicillinase, 30 min with HMRZ-86
Protocol: as §1, §2

[7] = system: K. pneumoniae strains; assay: as above; set-up: key: Yellow or orange colour: negative result (absence of C3G-resistant strains); Orange: Yellow or orange colour: negative result (absence of C3G-resistant strains); Red colour: positive result (presence of C3G-resistant strains)
Protocol: as §1, §2

[8] = system: P. aeruginosa strains; assay: as above; set-up: key: Yellow or orange colour: negative result (absence of C3G-resistant strains); Orange: Yellow or orange colour: negative result (absence of C3G-resistant strains); Red colour: positive result (presence of C3G-resistant strains); conditions: 30 min with HMRZ-86
Protocol: as §1, §2

[9] = system: P. mirabilis strains; assay: as above; set-up: key: Yellow or orange colour: negative result (absence of C3G-resistant strains); Orange: Yellow or orange colour: negative result (absence of C3G-resistant strains); Red colour: positive result (presence of C3G-resistant strains); conditions: 30 min with HMRZ-86
Protocol: as §1, §2

[10] = system: S. marcescens strain; assay: as above; set-up: key: Yellow or orange colour: negative result (absence of C3G-resistant strains); Orange: Yellow or orange colour: negative result (absence of C3G-resistant strains); Red colour: positive result (presence of C3G-resistant strains); conditions: S. marcescens 11787, Hyperproduced cephalosporinase, 30 min with HMRZ-86
Protocol: as §1, §2

[11] = P. aeruginosa 11774, Hyperproduced cephalosporinase
[12] = P. aeruginosa 11778, Hyperproduced cephalosporinase
[13] = P. aeruginosa 11782, Hyperproduced cephalosporinase

Compound: CC(C)(ON=C(C(=O)N[C@@H]1C(=O)N2C(C(=O)O)=C(C=Cc3ccc([N+](=O)[O-])cc3[N+](=O)[O-])CS[C@H]12)c1csc(N)n1)C(=O)O.O=C(O)C(F)(F)F [HMRZ-86, (6R,7R)-trifluoroacetate 7-[[2-(2-amino-4-thiazolyl)-2-[(1-carboxy-1-methylethoxy)imino]acetyl]amino]-1-aza-3-[2-(2,4-dinitrophenyl)ethenyl]-8-oxo-5-thiabicyclo[4.2.0]oct-2-ene-2-carboxylic acid]
- Electrochemical assay Intensity [1, 11]: 2160 nA
- Electrochemical assay Intensity [1, 12]: 2278 nA
- Electrochemical assay Intensity [1, 13]: 1778 nA
- β-Lacta ™ Test Colour [2]: Yellow
- β-Lacta ™ Test Colour ([3]; E. aerogenes 11772, Inducible cephalosporinase, 30 min with HMRZ-86): Yellow
- β-Lacta ™ Test Colour ([3]; E. aerogenes 11775, Hyperproduced cephalosporinase, 30 min with HMRZ-86): Yellow
- β-Lacta ™ Test Colour ([3]; E. aerogenes 11796, ESBL TEM 24, 30 min with HMRZ-86): Orange
- β-Lacta ™ Test Colour ([4]; E. cloacae 11784, Hyperproduced cephalosporinase): Orange
- β-Lacta ™ Test Colour ([4]; E. cloacae 11790, Hyperproduced cephalosporinase): Orange
- β-Lacta ™ Test Colour ([4]; E. cloacae 11794, Hyperproduced cephalosporinase): Orange
- β-Lacta ™ Test Colour ([5]; E. coli 11746, Hyperproduced penicillinase, 30 min with HMRZ-86): Yellow
- β-Lacta ™ Test Colour ([5]; E. coli 11748, Inducible cephalosporinase, 30 min with HMRZ-86): Yellow
- β-Lacta ™ Test Colour ([5]; E. coli 11755, Carbapenemase OXA-48 - CTX-M, 30 min with HMRZ-86): Red
- β-Lacta ™ Test Colour ([5]; E. coli 11757, Carbapenemase OXA-48, 30 min with HMRZ-86): Orange
- β-Lacta ™ Test Colour ([5]; E. coli 11765, Hyperproduced penicillinase, 30 min with HMRZ-86): Yellow
- β-Lacta ™ Test Colour ([5]; E. coli 11766, Inducible cephalosporinase, 30 min with HMRZ-86): Yellow
- β-Lacta ™ Test Colour ([5]; E. coli 11771, Hyperproduced penicillinase, 30 min with HMRZ-86): Yellow
- β-Lacta ™ Test Colour ([5]; E. coli 11776, Inducible cephalosporinase, 30 min with HMRZ-86): Yellow
- β-Lacta ™ Test Colour ([5]; E. coli 11780, Hyperproduced penicillinase, 30 min with HMRZ-86): Yellow
- β-Lacta ™ Test Colour ([5]; E. coli 11781, Low-level penicillinase, 30 min with HMRZ-86): Yellow
- β-Lacta ™ Test Colour ([5]; E. coli 11791, Hyperproduced cephalosporinase, 30 min with HMRZ-86): Yellow
- β-Lacta ™ Test Colour ([5]; E. coli 11810, ESBL CTX-M-1, 30 min with HMRZ-86): Red
- β-Lacta ™ Test Colour ([5]; E. coli 11817, ESBL CTX-M-2, 30 min with HMRZ-86): Red
- β-Lacta ™ Test Colour ([5]; E. coli 11818, ESBL CTX-M-1, 30 min with HMRZ-86): Red
- β-Lacta ™ Test Colour ([5]; E. coli 11820, ESBL SHV-12, 30 min with HMRZ-86): Red
- β-Lacta ™ Test Colour ([5]; E. coli 11828, ESBL CTX-M-27, 30 min with HMRZ-86): Red
- β-Lacta ™ Test Colour ([5]; E. coli 11833, ESBL CTX-M-9, 30 min with HMRZ-86): Red
- β-Lacta ™ Test Colour ([5]; E. coli 11834, ESBL TEM-12, 30 min with HMRZ-86): Yellow
- β-Lacta ™ Test Colour ([5]; E. coli 11863, ESBL CTX-M-14, 30 min with HMRZ-86): Red
- β-Lacta ™ Test Colour ([5]; E. coli K12, Beta-lactamase negative, 30 min with HMRZ-86): Yellow
- β-Lacta ™ Test Colour [6]: Yellow
- β-Lacta ™ Test Colour ([7]; K. pneumoniae 11754, Carbapenemase OXA-48 - CTX-M, 30 min with HMRZ-86): Red
- β-Lacta ™ Test Colour ([7]; K. pneumoniae 11762, Carbapenemase OXA-48, 30 min with HMRZ-86): Orange
- β-Lacta ™ Test Colour ([7]; K. pneumoniae 11770, Low-level penicillinase, 30 min with HMRZ-86): Yellow
- β-Lacta ™ Test Colour ([7]; K. pneumoniae 11812, ESBL CTX-M-15, 30 min with HMRZ-86): Red
- β-Lacta ™ Test Colour ([7]; K. pneumoniae 11839, Carbapenemase KPC-2, 30 min with HMRZ-86): Red
- β-Lacta ™ Test Colour ([7]; K. pneumoniae 11842, Carbapenemase NDM-1, 30 min with HMRZ-86): Red
- β-Lacta ™ Test Colour [8, 11]: Orange
- β-Lacta ™ Test Colour [8, 12]: Yellow
- β-Lacta ™ Test Colour [8, 13]: Yellow
- β-Lacta ™ Test Colour ([9]; P. mirabilis 11747, Beta-lactamase negative): Yellow
- β-Lacta ™ Test Colour ([9]; P. mirabilis 11768, Low-level penicillinase): Yellow
- β-Lacta ™ Test Colour [10]: Orange
